We go through 26 compounds from US20020136733A1, “Malaria peptides” (priority 1994, published 2002).

Marks after values point to notes of the source that are not given here. Residues, ends and D or L forms follow the SMILES beside them.

One data set relates to HLA-B17. The data set is described as follows: HLA assembly assay, binding to HLA-B17 (T2 cell line transfected with HLA-B58). Also on record: species or system human.
Conditions: not given
The source says:
(§1) We have recently described a novel approach to identifying CTL epitopes and potential CTL epitopes in P. falciparum^1. This consisted, in brief, of 1) determining a motif for peptides bound to a particular KLA class I molecules, 2) synthesizing peptides from P. falciparum antigens congruent with this motif, 3) testing whether these peptides bind to that HLA class I allele using a binding assay known as a HLA assembly assay, and 4) testing whether lymphocytes from individuals exposed to malaria could recognise these peptides as epitopes after suitable in vitro restimulation and culture. In that work we identified peptide epitopes and potential peptide epitopes for two HLA class I molecules, HLA-B53 and HLA-B35. Here we extend that work to four further HLA class I molecules: HLA-A2, HLA-B8, HLA-B7 and HLA-B17. 52 peptides are identified that are shown either to be epitopes or potential epitopes for these HLA class I molecules.
The peptide binding motifs of HLA-A2, HLA-B7 and HLA-B8 have been described. For HLA-A2 strong preferences were found at positions 2 and 9 of bound peptides: for leucine, isoleucine and methionine at position 2, and for valine, leucine and isoleucine at position 9^3, 4 For HLA-B7 the preferred residues were proline at position 2 and a hydrophobic residue at position 9. Leucine, isoleucine, valine, alanine, phenylalanine and tryptophan were the hydrophobic residues preferred^5. For HLA-B8 preferred residues were found at positions 3, 5 and 9^6. At positions 3 and 5 lysine or arginine are preferred and at position 9, leucine or isoleucine or valine. The motif for peptides bound to HLA-B17 has not been reported so we determined this exactly as described for HLA-B35^1, using instead of the cell line CIR-B35, the cell line CIR-B58.
(§2) As described previously for identification of HLA-B35 and HLA-B53 epitopes^1, peptides were synthesised to correspond to these four motifs from the primary amino acid sequences of four P. falciparum pre-erythrocytic antigens: CSP, TRAP, LSA-1 and SHEBA. Over one hundred peptides were synthesized. […]
Consider “CSSVFNVV [cp56, circumsporozoite protein peptide, position 388, HLA-B17]”, for which the “binding to HLA-B17 in the HLA assembly assay” value (“binding to HLA-B17” below) is recorded as “bind”.

Take “GSANKPKDEL [cp55, circumsporozoite protein peptide, position 364, HLA-B17]”: the “binding to HLA-B17” value was “bind”.

Turning to “LSVSSFLFV [cp48, circumsporozoite protein peptide, position 8, HLA-B17]”, the “binding to HLA-B17” value is “bind”.

In the next data set the test system is HLA-B8. The data set is described as follows: HLA assembly assay, binding to HLA-B8 (T2 cell line transfected with HLA-B8). Further details: species or system human.
Conditions: not given
Source text: as §1, §2
As for “LRKPKHKKL [cp43, circumsporozoite protein peptide, position 134, HLA-B8]”, the “binding to HLA-B8 in the HLA assembly assay” value is reported as “bound”.

The subject of a further data set is HLA matched or autologous B cell line targets pre-pulsed with the peptide. Kind of data set: CTL chromium release assay with restimulated lymphocytes from malaria-exposed Gambians. The conditions noted are these: Gambian adults with HLA-B8 (Z42, Z130, Z80, Z169); 10% or greater specific lysis regarded as significant. The data set is classed as cell-based, human. As to the method: Peptides shown to bind to a particular HLA class I allele were tested for CTL recognition in assays using lymphocytes from malaria-exposed Gambians, as described previously^1. A minority of peptides, synthesized to correspond to a peptides binding motif were not tested in the relevant assembly assay but tested only for CTL recognition. Cells from 82 adult Gambians and 53 Gambian children, all exposed to malaria, were used in the course of these studies. The children and adults were HLA typed using cellular or molecular techniques as described previously^1. Peptides were incubated with cells either singly, or in pools as described^1 at concentrations of 10-100 μM. Peptides could either be left with the cells for the duration of restimulation (as reported^1) or washed off after an hour. Cells were cultured for 1-3 weeks before a standard CTL chromium release assay^1 was performed using HLA matched or autologous B cell line targets pre-pulsed with the peptide to be tested. Peptides were tested either singly or in pools for CTL recognition.
Consider “LRKPKHKKL [cp43, circumsporozoite protein peptide, position 134, HLA-B8]”, for which the “CTL recognition / lysis of peptide-pulsed target cells” value is “HLA-B8-restricted CTL epitope”.

Still in this data set, the particulars now being: asterisk beside the label in the table; HLA class I molecule.
On to `CSCC[C@H](N)C(=O)N1CCC[C@H]1C(=O)N[C@@H](CC(N)=O)C(=O)N[C@@H](Cc1ccc(O)cc1)C(=O)N1CCC[C@H]1C(=O)N[C@@H](CC(N)=O)C(=O)N[C@@H](CCCNC(=N)N)C(=O)N[C@@H](CC(N)=O)C(=O)N[C@H](C(=O)O)C(C)C` [cp6.1, MPNYPNRNV] (H-MPNYPNRNV-OH; N-terminus and C-terminus assumed), for which the “identified as an epitope for a secondary cytotoxic T lymphocyte response” value (from here on “identified as an epitope”) is reported as “cp6.1 *”.

With `CSCC[C@H](N)C(=O)N1CCC[C@H]1C(=O)N[C@@H](CC(N)=O)C(=O)N[C@@H](CC(N)=O)C(=O)N1CCC[C@H]1C(=O)N[C@@H](CC(N)=O)C(=O)N[C@@H](CCCNC(=N)N)C(=O)N[C@@H](CC(N)=O)C(=O)N[C@H](C(=O)O)C(C)C` [cp6.2, MPNNPNRNV] (H-MPNNPNRNV-OH; N-terminus and C-terminus assumed), the “identified as an epitope” value is recorded as “cp6.2 *”.

As for `CC[C@H](C)[C@H](NC(=O)[C@@H](NC(=O)[C@H](CCCCN)NC(=O)[C@H](CC(C)C)NC(=O)[C@@H](N)Cc1ccc(O)cc1)[C@@H](C)O)C(=O)N[C@@H](CCC(N)=O)C(=O)N[C@@H](CC(N)=O)C(=O)N[C@@H](CO)C(=O)N[C@@H](CC(C)C)C(=O)O` [cp36, YLKTIQNSL] (H-YLKTIQNSL-OH; N-terminus and C-terminus assumed), the “identified as an epitope” value is listed as “cp36 *”.

As for `CC[C@H](C)[C@H](NC(=O)[C@H](CCCCN)NC(=O)[C@H](CCC(N)=O)NC(=O)[C@H](CC(C)C)NC(=O)[C@@H](N)Cc1ccc(O)cc1)C(=O)N[C@@H](CCC(N)=O)C(=O)N[C@@H](CC(N)=O)C(=O)N[C@@H](CO)C(=O)N[C@@H](CC(C)C)C(=O)O` [cp37, YLQKIQNSL] (H-YLQKIQNSL-OH; N-terminus and C-terminus assumed), the “identified as an epitope” value is recorded as “cp37 *”.

For `CC[C@H](C)[C@H](NC(=O)[C@H](CCCCN)NC(=O)[C@H](CCC(N)=O)NC(=O)[C@H](CC(C)C)NC(=O)[C@@H](N)Cc1ccc(O)cc1)C(=O)N[C@@H](CCCCN)C(=O)N[C@@H](CC(N)=O)C(=O)N[C@@H](CO)C(=O)N[C@@H](CC(C)C)C(=O)O` [cp38, YLQKIKNSL] (H-YLQKIKNSL-OH; N-terminus and C-terminus assumed), the “identified as an epitope” value is “cp38 *”.

With `CC(C)C[C@H](NC(=O)[C@H](Cc1ccc(O)cc1)NC(=O)[C@H](CCCCN)NC(=O)[C@@H](NC(=O)[C@H](CC(N)=O)NC(=O)CNC(=O)[C@H](CC(C)C)NC(=O)[C@@H](N)Cc1c[nH]cn1)C(C)C)C(=O)N[C@H](C(=O)O)C(C)C` [tr26, HLGNVKYLV] (H-HLGNVKYLV-OH; N-terminus and C-terminus assumed), the “identified as an epitope” value was “tr26 *”.

Consider `CC[C@H](C)[C@H](NC(=O)CN)C(=O)N[C@@H](C)C(=O)NCC(=O)NCC(=O)N[C@@H](CC(C)C)C(=O)N[C@@H](C)C(=O)N[C@@H](CC(C)C)C(=O)N[C@@H](CC(C)C)C(=O)O` [tr39, GIAGGLALL] (H-GIAGGLALL-OH; N-terminus and C-terminus assumed), for which the “identified as an epitope” value is “tr39 *”.

For `CC(C)C[C@H](NC(=O)[C@H](C)NC(=O)[C@H](CCCCN)NC(=O)[C@H](CCC(=O)O)NC(=O)[C@H](CCCCN)NC(=O)[C@H](CC(N)=O)NC(=O)[C@H](CCCCN)NC(=O)[C@H](CO)NC(=O)[C@H](C)N)C(=O)O` [tr42, ASKNKEKAL] (H-ASKNKEKAL-OH; N-terminus and C-terminus assumed), the “identified as an epitope” value is “tr42 *”.

As to `CC[C@H](C)[C@H](NC(=O)[C@@H](NC(=O)[C@H](CC(C)C)NC(=O)[C@H](C)NC(=O)[C@H](CCCCN)NC(=O)[C@H](CCC(=O)O)NC(=O)[C@H](CCCCN)NC(=O)[C@H](CC(N)=O)NC(=O)[C@@H](N)CCCCN)[C@@H](C)CC)C(=O)O` [tr43, KNKEKALII] (H-KNKEKALII-OH; N-terminus and C-terminus assumed), the “identified as an epitope” value is “tr43 *”.

In the next data set the target is T1, HLA-B7 (Homo sapiens, UniProt P01889).
T1 construct: expressed in transfected cells; host or cells: T2 cell line
T1 sequence (P61769 21-119): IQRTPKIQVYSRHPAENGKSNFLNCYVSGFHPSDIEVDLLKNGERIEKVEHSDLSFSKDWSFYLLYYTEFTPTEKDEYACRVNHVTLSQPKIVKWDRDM
T1 sequence (P01889 25-362): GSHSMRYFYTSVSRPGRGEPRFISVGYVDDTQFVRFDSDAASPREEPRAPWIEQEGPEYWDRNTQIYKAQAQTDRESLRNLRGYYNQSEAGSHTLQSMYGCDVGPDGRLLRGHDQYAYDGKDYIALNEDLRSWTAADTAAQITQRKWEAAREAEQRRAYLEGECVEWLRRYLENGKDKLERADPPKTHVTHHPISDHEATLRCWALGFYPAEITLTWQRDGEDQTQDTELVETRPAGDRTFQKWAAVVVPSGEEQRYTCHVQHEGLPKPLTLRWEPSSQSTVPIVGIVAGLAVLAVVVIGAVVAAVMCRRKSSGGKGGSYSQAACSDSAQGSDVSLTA
Experiment: not given
The class given is binding.
Conditions: not given
Source text: as §1
(§3) As described previously for identification of HLA-B35 and HLA-B53 epitopes^1, peptides were synthesised to correspond to these four motifs from the primary amino acid sequences of four P. falciparum pre-erythrocytic antigens: CSP, TRAP, LSA-1 and SHEBA. Over one hundred peptides were synthesized. Binding assays^7 were performed on selected peptides to determine whether they bound to HLA-A2, -B7, -B8, or -B58 using the untransfected T2 cell line (for HLA-A2) or the T2 cell line transfected with HLA-B7 (used to assess binding to HLA-B7s), or with HLA-B8 (used to assess binding to HLA-B8), or with HLA-B58 (used to assess binding to HLA-B58).
On to MPLETQLAI [sh6], for which the “binding to HLA-B7 in the HLA assembly assay” value (shortened to “binding to HLA-B7”) was “bind”.

The same data set, now with this note: T2 cell line transfected with HLA-B7.
For the compound EPAPFDETL [tr15], the “binding to HLA-B7” value is reported as “bind”.

For GPFMKAVCV [tr21], the “binding to HLA-B7” value is reported as “bind”.

On to IPDSIQDSL [tr13], for which the “binding to HLA-B7” value is “bind”.

As for “IPSLALMLI [sh1, SHEBA peptide, position 7, HLA-B7]”, the “binding to HLA-B7” value is listed as “bind”.

In the case of “KPIVQYDNF [ls6, LSA-1 peptide, position 1786, HLA-B7]”, the “binding to HLA-B7” value was “bind”.

With NPDPNANPNV [cp21], the “binding to HLA-B7” value is on record as “bind”.

Consider “NPENPPNPDI [tr6, TRAP peptide, position 348, HLA-B7]”, for which the “binding to HLA-B7” value is reported as “bind”.

Another data set addresses T2, HLA-A2 (Homo sapiens, UniProt P04439, D140Y/D185E/D98H/E176V/E277Q/G131W/G231S/I119V/I121R/I166T/I218V/L300P/L318F/N151K/N90K/P208A/P217A/Q86G/Q94H/R138H/R169H/T345S).
T2 construct: using the untransfected T2 cell line (for HLA-A2); endogenous in cells; host or cells: untransfected T2 cell line
Kind of data set: HLA assembly assay, binding to HLA-A2 (untransfected T2 cell line).
Conditions: not given
Source text: as §1, §3
As to “GIYKELEDL [ls19, LSA-1 peptide, position 1801, HLA-A2]”, the “binding to HLA-A2 in the HLA assembly assay” value (“binding to HLA-A2” below) is “bind”.

Take “HIFDGDNEI [ls23, LSA-1 peptide, position 1883, HLA-A2]”: the “binding to HLA-A2” value was “bind”.

For the compound ILYISFYFI [ls10], the “binding to HLA-A2” value is on record as “bind”.

With “LLMDCSGSI [tr29, TRAP peptide, position 51, HLA-A2]”, the “binding to HLA-A2” value is recorded as “bound”.

With YISFYFILV [ls11], the “binding to HLA-A2” value was “bind”.
